Earlier results on 53 compounds are cited in PMC12308805, “Ultrahigh-Throughput Virtual Screening Strategies against PPI Targets: A Case Study of STAT Inhibitors” (Journal of Chemical Information and Modeling, 2025).

Structures are written as SMILES. Square brackets hold non-standard residues; d marks the D form. Peptide text beside a SMILES is read from it. * marks the point of attachment. aIle = CC[C@@H](C)[C@H](N)C(=O)O; AMC = Cc1cc(=O)oc2cc(N*)ccc12; Boc = CC(C)(C)OC(=O)*

The test system of the first data set is STAT3. Conditions: sheet 6QHD_actives_decoys, retrospective screening set for STAT3 SH2 domain (PDB 6QHD); decoys are presumed inactives, not tested; ref DUD-E; cited from earlier work.
Take `CCOC(=O)c1ccc(NC(=O)c2cc([N+](=O)[O-])ccc2NC(=O)CNCc2ccc3c(c2)OCO3)cc1` [Decoy729]: the Type entry was “Inactive (Decoy)”.

Turning to `C[C@H](N[C@H](C)c1ccc(Cl)s1)c1ccc(Cl)c(Cl)c1Cl` [Decoy730], the Type entry is recorded as “Inactive (Decoy)”.

Take `CCCOC(=O)c1ccc(OCC(=O)N/N=C(/S)NC(=O)c2ccccc2[N+](=O)[O-])cc1` [Decoy731]: the Type result is listed as “Inactive (Decoy)”.

Consider `C=C1NC(=O)[C@@H]([C@@H](C)O)NC(=O)[C@@H](C(C)C)NC(=O)[C@@H](C)[C@@H](O)[C@H](C)[C@@H](CCCCCCCCC)OC1=O` [Decoy732], for which the Type entry is recorded as “Inactive (Decoy)”.

As to `CCOc1ccc(NC(=O)CCC(=O)NNC(=S)NC(=O)c2cc([N+](=O)[O-])cc([N+](=O)[O-])c2)cc1` [Decoy733], the Type entry is listed as “Inactive (Decoy)”.

In the case of `O=C(NC(CO[C@H]1[C@H](O)[C@H](O)[C@H](O)O[C@@H]1CO)CO[C@H]1[C@H](O)[C@H](O)[C@@H](O)O[C@@H]1CO)c1ccc(C2(C(F)(F)F)N=N2)cc1` (some centres unmarked) [Decoy734], the Type entry is recorded as “Inactive (Decoy)”.

Consider `CCOC(=O)CNC(=O)[C@H](c1ccc(OC)cc1)N(C(=O)c1snc(C(N)=O)c1N)c1cccc(C)c1` [Decoy735], for which the Type result is given as “Inactive (Decoy)”.

For `COc1cccc(/C=N/NC(=O)[C@H](C)Sc2nnc(S[C@H](C)C(=O)N/N=C/c3cccc(OC)c3OC)s2)c1OC` [Decoy736], the Type entry was “Inactive (Decoy)”.

For the compound `COc1cc(CNC(=O)CSc2n[nH]c(N/N=C/c3cc(OC)c(O)cc3[N+](=O)[O-])n2)cc(OC)c1` [Decoy737], the Type result is on record as “Inactive (Decoy)”.

Consider `COc1ccc(OC[C@@H](O)Cn2c(C)c(C#N)c(=O)n(C[C@@H](O)COc3ccc(OC)cc3)c2=O)cc1` [Decoy738], for which the Type entry is given as “Inactive (Decoy)”.

Regarding `O=C(O)CN(CC(=O)O)Cc1cc2c(cc1O)Oc1cc(O)c(CN(CC(=O)O)CC(=O)O)cc1C21OC(=O)c2ccccc21` [Decoy739], the Type result is recorded as “Inactive (Decoy)”.

For the compound `CCOC(=O)[C@@](NC(=O)c1cccc(Cl)c1)(Nc1ccc(S(=O)(=O)Nc2cc(C)nc(C)n2)cc1)C(F)(F)F` [Decoy740], the Type result is recorded as “Inactive (Decoy)”.

On to `COc1ccc([N+](=O)[O-])cc1N(C[C@H](O)CN(Cc1ccccc1)Cc1ccccc1)S(=O)(=O)c1ccccc1` [Decoy741], for which the Type entry is “Inactive (Decoy)”.

Regarding `CC(=O)O[C@H]1[C@@H](O)[C@H](CO)O[C@H](O[C@@H](C/N=C/c2c(O)cc(O)c3ccccc23)[C@@H](CO)O[C@H](O)C/N=C/c2c(O)cc(O)c3ccccc23)[C@@H]1O` [Decoy742], the Type entry is reported as “Inactive (Decoy)”.

In the case of `CC[C@@]1(c2ccccc2)NC(=O)N(CC(=O)Nc2ccc(S(=O)(=O)Nc3ncccn3)cc2)C1=O` [Decoy743], the Type result is listed as “Inactive (Decoy)”.

For `CCN(CC)S(=O)(=O)c1ccc(NC(=O)CCCCCCCC(=O)Nc2ccc(S(=O)(=O)N(CC)CC)cc2)cc1` [Decoy744], the Type entry is listed as “Inactive (Decoy)”.

Consider `CCOC(=O)C1=C(C)NC(=O)N[C@H]1c1ccc(OCC(=O)N/N=C/c2cc(C)n(-c3ccc(Cl)c(Cl)c3)c2C)c(OC)c1` [Decoy745], for which the Type entry is listed as “Inactive (Decoy)”.

`Cc1cc(NS(=O)(=O)c2ccc(NC(=O)CCCC(=O)Nc3ccc(S(=O)(=O)Nc4cc(C)on4)cc3)cc2)no1` [Decoy746]: the Type result is given as “Inactive (Decoy)”.

On to `CCOC(=O)c1[nH]c(C)c(C(=O)OCC(=O)NCC(=O)Nc2ccc(F)c(F)c2F)c1C` [Decoy747], for which the Type result is on record as “Inactive (Decoy)”.

For the compound `CCCCCCCCCCCCCCCCN(C)S(=O)(=O)c1ccc2sc(NNS(=O)(=O)c3ccc(S(N)(=O)=O)cc3)[n+](C)c2c1` [Decoy748], the Type result is on record as “Inactive (Decoy)”.

Turning to `CS(=O)(=O)SCCNC(=O)[C@H](N)CCCCNC(=O)CCCCCNC(=O)CCCC[C@@H]1SC[C@H]2NC(=O)N[C@H]12` [Decoy749], the Type result is given as “Inactive (Decoy)”.

For the compound `COc1cc(Cc2ccc(NC(=O)CSc3nc(N)cc(=O)[nH]3)c(OC)c2)ccc1NC(=O)CSc1nc(N)cc(=O)[nH]1` [Decoy750], the Type entry is reported as “Inactive (Decoy)”.

As to `CCOC(=O)c1c(NC(=O)CSc2n[nH]c(N/N=C/c3c[nH]c4ccccc34)n2)sc2c1CCC2` [Decoy751], the Type result is reported as “Inactive (Decoy)”.

Regarding `CC(=O)Nc1cccc(NC(=O)CSc2nnc(N/N=C/c3c(O)ccc4ccccc34)n2N)c1` [Decoy752], the Type result is “Inactive (Decoy)”.

`CC[C@@H](C)[C@H](NC(=O)OC(C)(C)C)C(=O)N[C@@H](CCC(=O)O)C(=O)NCC(=O)N[C@@H](CCCNC(=N)N)C(=O)Nc1ccc2c(C)cc(=O)oc2c1` [Decoy753] (Boc-[aIle]EGR-{AMC}): the Type entry is listed as “Inactive (Decoy)”.

Turning to `CCOC(=O)c1c(NC(=O)c2cc(OC)c(OC)c(OC)c2)sc(C(=O)Nc2ccc(OC)cc2OC)c1C` [Decoy754], the Type entry is on record as “Inactive (Decoy)”.

Regarding `CC(C)CN(C(=O)CN(C)C(=O)Cc1ccccc1Cl)c1c(N)n(CC(C)C)c(=O)[nH]c1=O` [Decoy755], the Type result was “Inactive (Decoy)”.

Regarding `CCOC(=O)c1[nH]c(C)c(C(=O)C2=C(O)C(=O)N(CCCn3ccnc3)[C@H]2c2cc(OC)c(OC)c(OC)c2)c1C` [Decoy756], the Type result is on record as “Inactive (Decoy)”.

Consider `CCCCN(C)S(=O)(=O)c1ccc(C(=O)Nc2ccc(S(=O)(=O)Nc3nc(C)cc(C)n3)cc2)cc1` [Decoy757], for which the Type result is given as “Inactive (Decoy)”.

Take `CC/C=C\C/C=C\C/C=C\CCCCCCCC(=O)OC[C@@H](O)CO[C@H]1O[C@@H](CO[C@H]2O[C@@H](CO)[C@H](O)[C@@H](O)[C@@H]2O)[C@@H](O)[C@@H](O)[C@@H]1O` [Decoy758]: the Type entry is listed as “Inactive (Decoy)”.

For the compound `CCCOc1ccc([C@@H]2C(C(=O)c3c(C)nc4ccccn34)=C(O)C(=O)N2CCN(CC)CC)cc1OCC` [Decoy759], the Type result is “Inactive (Decoy)”.

For the compound `CCCOc1ccc([C@H]2C(C(=O)c3c(C)nc4ccccn34)=C(O)C(=O)N2CCN(CC)CC)cc1OCC` [Decoy760], the Type entry is listed as “Inactive (Decoy)”.

`CCOC(=O)c1c(C)[nH]c(C(=O)OCC(=O)NCC(=O)Nc2ccc(F)c(F)c2F)c1C` [Decoy761]: the Type result is recorded as “Inactive (Decoy)”.

In the case of `CCCCOC(=O)C1=C(C)Nc2nc(SCc3ccccc3Cl)nn2[C@@H]1c1ccccc1C(=O)O` [Decoy762], the Type entry is “Inactive (Decoy)”.

Consider `Cc1nn(-c2cc(Cl)c(S(=O)(=O)O)cc2Cl)c(O)c1/N=N/c1cccc(S(=O)(=O)O)c1` [Decoy763], for which the Type result was “Inactive (Decoy)”.

Turning to `CCOC(=O)[C@@H]1[C@@H](C(=O)OCC)[C@H]2/C(=N\NS(=O)(=O)c3ccc(C)cc3)[C@H]3[C@@H](C(=O)OCC)[C@@H](C(=O)OCC)[C@@H]3/C(=N\NS(=O)(=O)c3ccc(C)cc3)[C@@H]12` [Decoy764], the Type result is reported as “Inactive (Decoy)”.

As for `COc1ccc([C@H](O[C@@H]2O[C@H](CO)[C@@H](O)[C@H](O)[C@H]2O)[C@@H](CO)Oc2ccc(/C=C/CO)cc2OC)cc1O` [Decoy765], the Type result was “Inactive (Decoy)”.

For `CC[C@@]1(c2ccccc2)NC(=O)N(CC(=O)NNC(=O)CCN2CCN(c3ccccc3)CC2)C1=O` [Decoy766], the Type result was “Inactive (Decoy)”.

In the case of `CC1=C/C(=C(\c2cc(C)c(O)c(CN(C)CC(=O)O)c2)c2ccccc2S(=O)(=O)O)C=C(CN(C)CC(=O)O)C1=O` [Decoy767], the Type result was “Inactive (Decoy)”.

`COc1ccccc1NCc1nnc(SCC(=O)Nc2ccc3c(c2)C(O)=NC3=O)n1-c1ccccc1` [Decoy768]: the Type result is listed as “Inactive (Decoy)”.

In the case of `CCN(CC)c1ccc(NC(=S)NC(=O)c2ccco2)cc1S(=O)(=O)Nc1ccc(OC)cc1` [Decoy769], the Type result is recorded as “Inactive (Decoy)”.

On to `CCc1ccc2[nH]c(=O)c(CN(CCc3ccc(OC)c(OC)c3)Cc3nnnn3Cc3ccccc3)cc2c1` [Decoy770], for which the Type entry is reported as “Inactive (Decoy)”.

On to `O=C(CCCCC(=O)Nc1ccc(S(=O)(=O)N2CCCCC2)cc1)Nc1ccc(S(=O)(=O)N2CCCCC2)cc1` [Decoy771], for which the Type result is “Inactive (Decoy)”.

For the compound `CC1=CC(=O)CC(C)(C)[C@H]1/C=C/[C@@H](C)O[C@@H]1O[C@H](CO)[C@@H](O)[C@H](O)[C@H]1O[C@@H]1OC[C@](O)(CO)[C@H]1O` [Decoy772], the Type entry is listed as “Inactive (Decoy)”.

Consider `COc1c([C@@H]2OC[C@@H](OC(C)=O)[C@@H](OC(C)=O)[C@H]2OC(C)=O)c(O)cc2oc(-c3ccc(O[C@H]4O[C@@H](CO)[C@@H](O)[C@@H](O)[C@H]4O)cc3)cc(=O)c12` [Decoy773], for which the Type result was “Inactive (Decoy)”.

Consider `COc1c([C@@H]2OC[C@H](OC(C)=O)[C@@H](OC(C)=O)[C@H]2OC(C)=O)c(O)cc2oc(-c3ccc(O[C@H]4O[C@@H](CO)[C@@H](O)[C@@H](O)[C@H]4O)cc3)cc(=O)c12` [Decoy774], for which the Type result is given as “Inactive (Decoy)”.

With `CC[C@H]1OC(=O)[C@@H](C)[C@@H](O[C@@H]2C[C@@](C)(OC)[C@H](O)[C@H](C)O2)[C@@H](C)[C@@H](O[C@H]2O[C@@H](C)C[C@@H](N(C)C)[C@H]2O)[C@](C)(OC)C[C@@H](C)C(=O)[C@@H](C)[C@@H](O)[C@]1(C)O` [Decoy775], the Type result is “Inactive (Decoy)”.

Take `COc1ccc2cc([C@H](c3nnnn3C(C)(C)C)N(CCc3ccc(OC)c(OC)c3)Cc3ccccc3)c(=O)[nH]c2c1` [Decoy776]: the Type result was “Inactive (Decoy)”.

For `Cc1cc(NC(=O)CSc2nncn2C)ccc1-c1ccc(NC(=O)CSc2nncn2C)cc1C` [Decoy777], the Type entry is reported as “Inactive (Decoy)”.

`CCOc1ccc(-n2c(SCC(=O)N/N=C/c3ccc(OC)c(OC)c3OC)nnc2-c2ccccc2)cc1` [Decoy778]: the Type entry is on record as “Inactive (Decoy)”.

For `C[C@@]1(c2cc3ccccc3o2)NC(=O)N(CC(=O)Nc2cccc(S(=O)(=O)N3CCCC3)c2)C1=O` [Decoy779], the Type result is recorded as “Inactive (Decoy)”.

Still in this data set, the particulars now being: sheet 6QHD_actives_decoys; retrospective screening set for STAT3 SH2 domain (PDB 6QHD); decoys generated with DUD-E and presumed inactive, not tested; ref DUD-E; cited from earlier work.
Regarding `CC(=O)Nc1ccc(S(=O)(=O)N(CCN2CCOCC2)CC(=O)N(Cc2ccc3c(c2)OCO3)Cc2ccc(C)o2)cc1` [Decoy727], the Type entry is on record as “Inactive (Decoy)”.

As for `COc1ccc(CCN2C(=O)[C@H]3[C@@H](C2=O)[C@]2(N[C@@H]3Cc3ccc(O)c(O)c3)C(=O)Nc3ccc(Cl)cc32)cc1OC` [Decoy728], the Type entry is given as “Inactive (Decoy)”.
